≈ marks a conversion by molar mass, not a printed value. Where two headings read alike, the source gives them in different places.
Key:
Format in all cases: cell-based
human lymphocytes = experiment: lymphocyte response to varied culture medium components
Procedure: Culture medium suitable for the growth of human lymphocytes is prepared as follows: To 50 ml of medium buffer 72 mg glucose is added, 1 ml amino acid supplement, 1 ml of a 16.5 mg/ml pyruvate: 2.64 mg/ml cysteine solution, 1 ml of a 1.4 mg/ml choline chloride; 1.8 mg/ml inositol solution, 1 ml of the above indicated vitamin supplement, and 1 ml of a 135 μg/ml adenine solution. The pH is adjusted with dilute NaOH to 7.6. Supplements of the following are then added: 1 ml of the antibiotic supplement, 0.5 ml of a 22.2 mg/ml calcium chloride solution, 0.5 ml of a 24 mg/ml magnesium sulfate solution, 1 ml of a solution of 0.278 mg/ml ferrous sulfate in 0.149 mg/ml EDTA. Deionized water is added to a final volume of 100 ml and the medium is filtered through Nalgene membrane filter units for sterilization. After filtration 0.2 ml of a 1 mg/ml sterile solution of phytohemagglutinin (PHA) is added to each 100 ml of media. PHA is obtained from Sigma Chemical Co. in 5 mg quantities and is diluted with sterile, deionized water.
Accordingly, a culture medium suitable for determining the growth or other responses of lymphocytes comprises a serum-free, buffered (pH 7.6) solution in deionized water comprises per liter of solution the following components as described in Table 1:
The components of the culture medium of Table 1 can be varied. In general, effective amounts of the components are used and can vary widely for the various growth assays of the invention and for individual patients. An effective amount of a component, as used herein, is an amount which will obtain a desired response from the patient. […] For most patients and assays the following ranges of components are satisfactory. The precise amounts of the components to provide an effective response can be determined by simple experimentation with the culture medium.
The following is an example of a lymphocyte assay: Previously sterilized 96 well microtiter plates (Corning) are used in this assay procedure. 0.2 milliliters of the culture medium is added to each well. Where necessary, variable supplements up to 10 μl may be added to each tube, or a smaller volume of an appropriately higher concentration of the medium can be added to the tubes and supplements then added to make a final volume of 0.2 ml. The assay is then inoculated with 10 μl of the diluted lymphocyte suspension (22,000 lymphocytes).
Incubation. The plates are incubated for 4 days at 37° C. in a 5% carbon dioxide atmosphere saturated with water vapor. […]
Harvesting. […] The filter papers are dried for 5 minutes in a drying oven at 120° C. and then counted on a Matrix 96 Beta Counter (Packard).

[1] = system: human peripheral blood lymphocytes; experiment: lymphocyte growth inhibition assay ([3H]-thymidine incorporation) in chemically defined medium; settings: for IC50: Homo sapiens, Lymphocyte, read-out: Amount Required to Inhibit Growth by 50%
Procedure: The medium is also described in the specification above. Various concentrations of amino acids can be used in the medium to determine the effect on growth or growth inhibition.
Human peripheral blood was collected from a group of patients in the clinic. […] Experiments were conducted in 96 well microtite plates. Triplicate samples were run in all experiments. […] For reversal of toxicity CoQ10 was added at a concentration of 0.5 μg/ml, and the patient's own plasma at a concentration of 0.1%. All chemicals were obtained from Sigma Chemical Corporation. […] Cells were then pulsed with 10 μl [^3H]-thymidine (0.29×10^-6M final concentration; specific activity […]). Twenty-four hours later, cells were harvested using an Inotech Cell Harvester. Radioactive incorporation was measured using a Packard Matrix 96 Beta Counter.

[2] = system: human peripheral blood lymphocytes; experiment: reversal of Lipitor (statin) toxicity in the lymphocyte culture assay; settings: Lipitor present; CoQ10 0.5 μg/ml, patient's own plasma 0.1%; all subjects
Text: The present invention also provides a composition comprised in the plasma that has the ability to ameliorate the toxicity of metabolic inhibitors such as the statins. […] It is contemplated that the plasma composition may comprise at least one peptide, a polypeptide, a protein or a small molecule which is associated with or bound to at least one peptide, polypeptide, or protein. The plasma composition may also comprise a lipid moiety, and/or a carbohydrate moiety and/or a nucleic acid component. As the plasma composition is heat-labile, it is contemplated to comprise at least one heat-labile peptide, polypeptide, or protein that may additionally be associated with or bound to at least one small molecule which may be a lipid moiety, and/or a carbohydrate moiety and/or a nucleic acid moiety.
The medium used in this study was the same as described previously (See U.S. Pat. No. 4,499,064, herein expressly incorporated by reference) except that the concentration the amino acids used was increased five fold. The medium is also described in the specification above. […]
Human peripheral blood was collected from a group of patients in the clinic. Lymphocytes were isolated as described (Shive, 1986), counted in a Coulter Counter, and inoculated into the medium at a concentration of 110,000 cells per ml. […] Radioactive incorporation was measured using a Packard Matrix 96 Beta Counter. […]

[3] = patients' lymphocytes, 4 days incubation then 24 h [3H]-thymidine pulse
[4] = at concentrations of up to 0.2 mg/ml

**Q.** `Nc1ncnc2nc[nH]c12` [Adenine] was tested. Which “concentration in culture medium that is toxic to lymphocytes” value (human lymphocytes; medium of Table 1, component varied) did it give?
**A.** 135 µg/mL

**Q.** `[Al]` [Aluminum] was tested. Which “Amount Required to Inhibit Growth by 50%” value [1, 3] did it give?
**A.** 0.005 mg/mL

**Q.** Which IC50 [1, 3] does the source give for `Cn1c(=O)c2c(ncn2C)n(C)c1=O` [Caffeine] here?
**A.** 77.6 µg/mL (≈ 400 µM)

**Q.** With `COC1=C(OC)C(=O)C(C/C=C(\C)CC/C=C(\C)CC/C=C(\C)CC/C=C(\C)CC/C=C(\C)CC/C=C(\C)CC/C=C(\C)CC/C=C(\C)CC/C=C(\C)CCC=C(C)C)=C(C)C1=O` [CoQ10, Co enzyme Q10] as the compound, how does the “reversal of Lipitor toxicity” value [2] read?
**A.** offers some protection, but it is not totally effective alone

**Q.** Which IC50 [1] does the source give for `CN1C(=O)CN=C(c2ccccc2)c2cc(Cl)ccc21` [Diazepam] here?
**A.** 20 µg/mL (≈ 70.2 µM)

**Q.** `CCO` [Ethanol] was tested. Which IC50 [1, 3] did it give?
**A.** 10000 µg/mL (≈ 217000 µM)

**Q.** For `O[C@H]1[C@H](O)[C@@H](O)[C@H](O)[C@@H](O)[C@H]1O` [Inositol], which Emax at 0.018 µg/mL (human lymphocytes; Homo sapiens, Lymphocyte, inositol 0.018 mg/l in medium, read-out: lymphocyte response, % of maximal response) is on record?
**A.** ~70%

**Q.** What about the Emax at 0.18 µg/mL (human lymphocytes; Homo sapiens, Lymphocyte, inositol 0.18 mg/l in medium, read-out: lymphocyte response, % of maximal response) of the same compound?
**A.** 90 to 100%

**Q.** For `NNC(=O)c1ccncc1` [Isoniazid], which IC50 [1, 3] is on record?
**A.** 548 µg/mL (≈ 4000 µM)

**Q.** For `CC(C)c1c(C(=O)Nc2ccccc2)c(-c2ccccc2)c(-c2ccc(F)cc2)n1CC[C@@H](O)C[C@@H](O)CC(=O)O` [Lipitor, Atorvastatin], which IC50 [1, 3] is on record?
**A.** < 0.1 µg/mL

**Q.** For `CN(Cc1cnc2nc(N)nc(N)c2n1)c1ccc(C(=O)N[C@@H](CCC(=O)O)C(=O)O)cc1` [Methothrexate], which “Amount Required to Inhibit Growth by 50%” value [1, 3] is on record?
**A.** <0.00002 mg/mL

**Q.** `CC[C@H](C)C(=O)O[C@H]1C[C@@H](C)C=C2C=C[C@H](C)[C@H](CC[C@@H]3C[C@@H](O)CC(=O)O3)[C@H]21` [Mevacor, Lovastatin] was tested. Which IC50 [1, 3] did it give?
**A.** < 0.1 µg/mL

**Q.** Which IC50 [1] does the source give for `N[C@@H](CCC(=O)O)C(=O)[O-].[Na+]` [Monosodium Glutamate] here?
**A.** 7500 µg/mL

**Q.** For `CC[C@H](C)C(=O)O[C@H]1C[C@H](O)C=C2C=C[C@H](C)[C@H](CC[C@@H](O)C[C@@H](O)CC(=O)O)[C@H]21` [Pravachol, Pravastatin sodium], which IC50 [1, 3] is on record?
**A.** < 0.1 µg/mL

**Q.** How did the “concentration in culture medium that is toxic to lymphocytes” value (human lymphocytes; human, 4 days, pH 7.6) turn out when `CC(=O)C(=O)O` [Pyruvate] was run?
**A.** 1650 µg/mL

**Q.** `CC1=C(/C=C/C(C)=C/C=C/C(C)=C/CO)C(C)(C)CCC1` [Retanol] was tested. Which IC50 [1, 3] did it give?
**A.** 0.5 µg/mL (≈ 1.75 µM)

**Q.** Which “Amount Required to Inhibit Growth by 50%” value [1, 3] does the source give for `O=C(O)c1ccccc1O` [Salicylate] here?
**A.** 0.005 mg/mL

**Q.** `Cn1c(=O)c2[nH]cnc2n(C)c1=O` [Theophyline] was tested. Which IC50 [1, 3] did it give?
**A.** 30 µg/mL (≈ 167 µM)

**Q.** How did the IC50 ([1]; patients' lymphocytes, 4 days incubation then 24 h [3H]-thymidine pulse, unit printed μg/ml) turn out when `CCCC(CCC)C(=O)O` [Valproic Acid (Depakote), Valproic Acid] was run?
**A.** 0.4 to 1.2 µg/mL (≈ 2.77 to 8.32 µM)

**Q.** With `CCC(C)(C)C(=O)O[C@H]1C[C@@H](C)C=C2C=C[C@H](C)[C@H](CC[C@@H]3C[C@@H](O)CC(=O)O3)[C@H]21` [Zocor, Simvastatin] as the compound, how does the IC50 [1, 3] read?
**A.** < 0.1 µg/mL

**Q.** For `N[C@H]1C(O)O[C@H](CO)[C@@H](O)[C@@H]1O` (stereo partly drawn) [glucoseamine], which toxicity in lymphocytes [1, 4] is on record?
**A.** did not show toxicity

**Q.** For `NCC1(CC(=O)O)CCCCC1` [neuronton], which toxicity in lymphocytes [1, 4] is on record?
**A.** did not show toxicity

**Q.** With `CCC1(c2ccccc2)C(=O)NC(=O)NC1=O` [phenobarbitol] as the compound, how does the toxicity in lymphocytes [1] read?
**A.** did not show toxicity

**Q.** Which toxicity in lymphocytes [1] does the source give for `Cc1nnc2n1-c1ccc(Cl)cc1C(c1ccccc1Cl)=NC2` [triazolam] here?
**A.** did not show toxicity
